This note sets out measurements from patent US20250195530A1, “POLQ INHIBITORS” (ASTRAZENECA AB, priority 2022, published 2025).

Structures are written as SMILES. Where two headings read alike, the source gives them in different places.

One test deals with DLD-1 BRCA2−/− cells. Nature of the test: Homologous recombination synthetic lethal inhibition of proliferation, DLD-1 BRCA2-/- (Cell Titre Glo 3D). It is filed as cell-based. Conditions: Homo sapiens. An outline of the steps:
(§1)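 DLD-1 BRCA2−/− and parental DLD-1 cells exposed to 10-point dose range (10 μM to 0.51 nM, 3-fold) in RPMI/10% FBS at 37 °C, with medium and compound replenished on day 6. Viability by Cell Titre Glo 3D luminescence at day 7 (DLD-1) or day 12 (BRCA2−/−); IC50 as concentration halving maximum signal.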

The next test concerns DLD-1 cells. Nature of the test: Inhibition of proliferation, DLD-1 BRCA2 wt control (Cell Titre Glo 3D). It is filed as cell-based. Conditions: Homo sapiens. Put shortly:
as §1

Where [1] appears, read: DLD-1, DLD-1 BRCA2 −/− cells, mean, read-out: POLQ PD Prolif Lumin BRCA2 −/− mean pIC50 (converted).
The mark [2] stands for this setting: DLD-1, DLD1 BRCA2 wt cells, mean, read-out: POLQ PD Prolif Lumin DLD1 mean PIC50 (converted).
Setting [3] is: DLD-1, first proliferation column (c5), DLD-1 BRCA2-/-, read-out: POLQ PD Prolif Lumin (converted).
Where [4] appears, read: DLD-1, second proliferation column (c6), DLD-1 BRCA2 wt control, read-out: POLQ PD Prolif Lumin (converted).

As for `C[C@@H](Oc1cccc(-c2nc3c(OC4(C)CC4)ncnc3n2Cc2cccc(Cl)c2)c1Cl)C(=O)O` [Example T91, (R)-2-(2-chloro-3-(9-(3-chlorobenzyl)-6-(1-methylcyclopropoxy)-9H-purin-8-yl)phenoxy)propanoic acid], the IC50 with DLD-1 BRCA2−/− cells (setting [1]) and in the test on DLD-1 cells (setting [2]) was greater than 10000 nM each time.

Regarding `CC1(Oc2ncnc3c2nc(-c2ccc(OCCc4nn[nH]n4)cc2Cl)n3Cc2cccc(Cl)c2)CC1` [Example T92, 8-(4-(2-(2H-tetrazol-5-yl)ethoxy)-2-chlorophenyl)-9-(3-chlorobenzyl)-6-(1-methylcyclopropoxy)-9H-purine], the IC50 is 2000 nM in the test with DLD-1 BRCA2−/− cells (setting [1]) and greater than 10000 nM with DLD-1 cells (setting [2]).

With `CC(=O)COc1ccc(-c2nc3c(OC4(C)CC4)ncnc3n2Cc2cc(C)ccn2)c(Cl)c1` [Example T104, 1-(3-chloro-4-(6-(1-methylcyclopropoxy)-9-((4-methylpyridin-2-yl)methyl)-9H-purin-8-yl)phenoxy)propan-2-one], the IC50 was 200 nM in the test on DLD-1 BRCA2−/− cells (setting [3]) and greater than 10000 nM in the test on DLD-1 cells (setting [4]).

With `Cc1ccnc(Cn2c(-c3ccc(N4CCNC4=O)cc3Cl)nc3c(OC4(C)CC4)ncnc32)c1` [Example T107, 1-(3-chloro-4-(6-(1-methylcyclopropoxy)-9-((4-methylpyridin-2-yl)methyl)-9H-purin-8-yl)phenyl)imidazolidin-2-one], the IC50 in the test on DLD-1 BRCA2−/− cells (setting [3]) is 398 nM; in the test on DLD-1 cells (setting [4]) it was greater than 10000 nM.

Take `Cc1ccnc(Cn2c(-c3ccc(OC4CNC4)cc3Cl)nc3c(OC4(C)CC4)ncnc32)c1` [Example T111, 8-(4-(azetidin-3-yloxy)-2-chlorophenyl)-6-(1-methylcyclopropoxy)-9-((4-methylpyridin-2-yl)methyl)-9H-purine]: the IC50 in the test on DLD-1 BRCA2−/− cells (setting [3]) is 316 nM; in the test with DLD-1 cells (setting [4]), greater than 10000 nM.

Take `Cc1ccnc(Cn2c(-c3ccc(C(=O)N(C)C)cc3Cl)nc3c(OC4(C)CC4)ncnc32)c1` [Example T112, 3-chloro-N,N-dimethyl-4-(6-(1-methylcyclopropoxy)-9-((4-methylpyridin-2-yl)methyl)-9H-purin-8-yl)benzamide]: the results for the IC50 with DLD-1 BRCA2−/− cells (setting [3]) and with DLD-1 cells (setting [4]) were 1580 nM and greater than 10000 nM, respectively.

Consider `Cc1ccnc(Cn2c(-c3ccc(CCC(N)=O)cc3Cl)nc3c(OC4(C)CC4)ncnc32)c1` [Example T116, 3-(3-chloro-4-(6-(1-methylcyclopropoxy)-9-((4-methylpyridin-2-yl)methyl)-9H-purin-8-yl)phenyl)propanamide], for which the results for the IC50 in the test on DLD-1 BRCA2−/− cells (setting [3]) and in the test with DLD-1 cells (setting [4]) were 631 nM and greater than 10000 nM, respectively.

Regarding `Cc1ccnc(Cn2c(-c3ccc(C(=O)NCCO)cc3Cl)nc3c(OC4(C)CC4)ncnc32)c1` [Example T119, 3-chloro-N-(2-hydroxyethyl)-4-(6-(1-methylcyclopropoxy)-9-((4-methylpyridin-2-yl)methyl)-9H-purin-8-yl)benzamide], the IC50 was 794 nM in the test on DLD-1 BRCA2−/− cells (setting [3]) and greater than 10000 nM in the test with DLD-1 cells (setting [4]).

For the compound `CNC(=O)COc1cccc(-c2nc3c(OC4(C)CC4)ncnc3n2Cc2cc(C)ccn2)c1Cl` [Example T120, 2-(2-chloro-3-(6-(1-methylcyclopropoxy)-9-((4-methylpyridin-2-yl)methyl)-9H-purin-8-yl)phenoxy)-N-methylacetamide], the IC50 was 158 nM in the test with DLD-1 BRCA2−/− cells (setting [3]) and greater than 6310 nM with DLD-1 cells (setting [4]).

`Cc1ccnc(Cn2c(-c3ccc(NC(=O)[C@@H](C)O)cc3Cl)nc3c(OC4(C)CC4)ncnc32)c1` [Example T121, (R)-N-(3-chloro-4-(6-(1-methylcyclopropoxy)-9-((4-methylpyridin-2-yl)methyl)-9H-purin-8-yl)phenyl)-2-hydroxypropanamide]: the results for the IC50 in the test with DLD-1 BRCA2−/− cells (setting [3]) and in the test with DLD-1 cells (setting [4]) were 316 nM and greater than 10000 nM, respectively.

`Cc1ccnc(Cn2c(-c3ccc(NC(=O)OCCO)cc3Cl)nc3c(OC4(C)CC4)ncnc32)c1` [Example T123, 2-hydroxyethyl (3-chloro-4-(6-(1-methylcyclopropoxy)-9-((4-methylpyridin-2-yl)methyl)-9H-purin-8-yl)phenyl)carbamate]: the IC50 is 200 nM in the test with DLD-1 BRCA2−/− cells (setting [3]) and greater than 10000 nM in the test with DLD-1 cells (setting [4]).

On to `Cc1ccnc(Cn2c(-c3ccc(OCCS(C)(=O)=O)cc3Cl)nc3c(OC4(C)CC4)ncnc32)c1` [Example T129, 8-(2-chloro-4-(2-(methylsulfonyl)ethoxy)phenyl)-6-(1-methylcyclopropoxy)-9-((4-methylpyridin-2-yl)methyl)-9H-purine], for which the IC50 is 158 nM in the test on DLD-1 BRCA2−/− cells (setting [3]) and greater than 10000 nM with DLD-1 cells (setting [4]).

Regarding `Cc1ccnc(Cn2c(-c3ccc(NC(=O)NCCO)cc3Cl)nc3c(OC4(C)CC4)ncnc32)c1` [Example T132, 1-(3-chloro-4-(6-(1-methylcyclopropoxy)-9-((4-methylpyridin-2-yl)methyl)-9H-purin-8-yl)phenyl)-3-(2-hydroxyethyl)urea], the IC50 is 2000 nM with DLD-1 BRCA2−/− cells (setting [3]) and greater than 10000 nM with DLD-1 cells (setting [4]).

For `CNCCCOc1ccc(-c2nc3c(OC4(C)CC4)ncnc3n2Cc2cc(Cl)ccn2)c(Cl)c1` [Example T134, 3-(3-chloro-4-(9-((4-chloropyridin-2-yl)methyl)-6-(1-methylcyclopropoxy)-9H-purin-8-yl)phenoxy)-N-methylpropan-1-amine], the IC50 is 126 nM in the test with DLD-1 BRCA2−/− cells (setting [3]) and greater than 10000 nM in the test with DLD-1 cells (setting [4]).

Take `CN(C)CCOc1ccc(-c2nc3c(OC4(C)CC4)ncnc3n2Cc2cc(Cl)ccn2)c(Cl)c1` [Example T135, 2-(3-chloro-4-(9-((4-chloropyridin-2-yl)methyl)-6-(1-methylcyclopropoxy)-9H-purin-8-yl)phenoxy)-N,N-dimethylethan-1-amine]: the IC50 in the test on DLD-1 BRCA2−/− cells (setting [3]) was 50.1 nM; in the test with DLD-1 cells (setting [4]) it was greater than 10000 nM.

Consider `Cc1ccnc(Cn2c(-c3ccc(CN(C)C)cc3Cl)nc3c(OC4(C)CC4)ncnc32)c1` [Example T136, 1-(3-chloro-4-(6-(1-methylcyclopropoxy)-9-((4-methylpyridin-2-yl)methyl)-9H-purin-8-yl)phenyl)-N,N-dimethylmethanamine], for which the IC50 with DLD-1 BRCA2−/− cells (setting [3]) was 501 nM; in the test on DLD-1 cells (setting [4]), greater than 10000 nM.

`CNCCOc1ccc(-c2nc3c(OC4(C)CC4)ncnc3n2Cc2cc(C)ccn2)c(Cl)c1` [Example T137, 2-(3-chloro-4-(6-(1-methylcyclopropoxy)-9-((4-methylpyridin-2-yl)methyl)-9H-purin-8-yl)phenoxy)-N-methylethan-1-amine]: the figures for the IC50 with DLD-1 BRCA2−/− cells (setting [3]) and in the test on DLD-1 cells (setting [4]) were 200 nM and greater than 10000 nM, respectively.

Regarding `Cc1cnc(Cn2c(-c3ccc(OC4CCNCC4)cc3Cl)nc3c(OC4(C)CC4)ncnc32)s1` [Example T138, 2-((8-(2-chloro-4-(piperidin-4-yloxy)phenyl)-6-(1-methylcyclopropoxy)-9H-purin-9-yl)methyl)-5-methylthiazole], the IC50 in the test with DLD-1 BRCA2−/− cells (setting [3]) was 501 nM; in the test on DLD-1 cells (setting [4]), greater than 10000 nM.

With `Cc1cnc(Cn2c(-c3ccc(OC[C@H]4CCCN4)cc3Cl)nc3c(OC4(C)CC4)ncnc32)s1` [Example T139, (R)-2-((8-(2-chloro-4-(pyrrolidin-2-ylmethoxy)phenyl)-6-(1-methylcyclopropoxy)-9H-purin-9-yl)methyl)-5-methylthiazole], the IC50 was 398 nM in the test on DLD-1 BRCA2−/− cells (setting [3]) and greater than 10000 nM with DLD-1 cells (setting [4]).

Turning to `Cc1cnc(Cn2c(-c3ccc(O[C@H]4CCN(C)C4)cc3Cl)nc3c(OC4(C)CC4)ncnc32)s1` [Example T140, (S)-2-((8-(2-chloro-4-((1-methylpyrrolidin-3-yl)oxy)phenyl)-6-(1-methylcyclopropoxy)-9H-purin-9-yl)methyl)-5-methylthiazole], the IC50 was 251 nM in the test with DLD-1 BRCA2−/− cells (setting [3]) and greater than 10000 nM in the test on DLD-1 cells (setting [4]).

Take `Cc1cnc(Cn2c(-c3cccc(OCCN4CC(O)C4)c3Cl)nc3c(OC4(C)CC4)ncnc32)s1` [Example T142, 1-(2-(2-chloro-3-(6-(1-methylcyclopropoxy)-9-((5-methylthiazol-2-yl)methyl)-9H-purin-8-yl)phenoxy)ethyl)azetidin-3-ol]: the values for the IC50 in the test with DLD-1 BRCA2−/− cells (setting [3]) and in the test with DLD-1 cells (setting [4]) were 1000 nM and greater than 10000 nM, respectively.

For the compound `CC1(Oc2ncnc3c2nc(-c2ccc(OCCN4CCNCC4)cc2Cl)n3Cc2ncsc2Cl)CC1` [Example T145, 5-chloro-4-((8-(2-chloro-4-(2-(piperazin-1-yl)ethoxy)phenyl)-6-(1-methylcyclopropoxy)-9H-purin-9-yl)methyl)thiazole], the IC50 was 2000 nM with DLD-1 BRCA2−/− cells (setting [3]) and greater than 10000 nM in the test with DLD-1 cells (setting [4]).

For the compound `CC1(Oc2ncnc3c2nc(-c2ccc(OCCN4CCNCC4)cc2Cl)n3Cc2cnc(Cl)s2)CC1` [Example T146, 2-chloro-5-((8-(2-chloro-4-(2-(piperazin-1-yl)ethoxy)phenyl)-6-(1-methylcyclopropoxy)-9H-purin-9-yl)methyl)thiazole], the IC50 in the test on DLD-1 BRCA2−/− cells (setting [3]) is 1260 nM; in the test on DLD-1 cells (setting [4]) it was greater than 10000 nM.

Turning to `Cc1cnc(Cn2c(-c3ccc(OCCCN(C)C)cc3Cl)nc3c(OC4(C)CC4)ncnc32)s1` [Example T148, 3-(3-chloro-4-(6-(1-methylcyclopropoxy)-9-((5-methylthiazol-2-yl)methyl)-9H-purin-8-yl)phenoxy)-N,N-dimethylpropan-1-amine], the IC50 in the test with DLD-1 BRCA2−/− cells (setting [3]) is 316 nM; with DLD-1 cells (setting [4]), greater than 7940 nM.

As to `Cc1cnc(Cn2c(-c3cccc(OCCCN(C)C)c3Cl)nc3c(OC4(C)CC4)ncnc32)s1` [Example T149, 3-(2-chloro-3-(6-(1-methylcyclopropoxy)-9-((5-methylthiazol-2-yl)methyl)-9H-purin-8-yl)phenoxy)-N,N-dimethylpropan-1-amine], the IC50 was 316 nM in the test with DLD-1 BRCA2−/− cells (setting [3]) and greater than 10000 nM in the test on DLD-1 cells (setting [4]).

`CC1(Oc2ncnc3c2nc(-c2ccc(OCCC(=O)O)cc2Cl)n3Cc2cccc(C(F)(F)F)c2)CC1` [Example T151, 3-(3-chloro-4-(6-(1-methylcyclopropoxy)-9-(3-(trifluoromethyl)benzyl)-9H-purin-8-yl)phenoxy)propanoic acid]: the IC50 with DLD-1 BRCA2−/− cells (setting [3]) was 398 nM; with DLD-1 cells (setting [4]), greater than 10000 nM.
